A short description of data set [1]: Highest concentration of vilanterol dissolvable in ethanol at 37° C. The data set is classed as physicochemical. The conditions noted are these: ethanol as the solvent. As for the experimental part:
In order to obtain optimal results in space, adjustment of the Vilanterol crystallization protocol to fit the system of the invention, and vice versa, was required. The original main compartment volume ranged between 0.1 to 1 ml. To maximize the amount of drug used in the experiment, and still meet the safety limitation approved by NASA, the main compartment (2) size was increased to 2 ml. The vilanterol concentration was adjusted according to the maximum temperature in which the payload could be stored on the ISS (37° C.).

Data set [2] is described as follows: Crystal width from scanning electron microscope micrographs (FIG. 3). It is filed as physicochemical. As for the experimental part: Gradual cooling of the vilanterol ethanolic solution (25 mg/ml) in rubber container (4), placed in one storage compartment (3), was carried out by reducing the temperature from 37° C. to 4° C. by storing the container in a refrigerator inside the ISS until the return to Earth. The results obtained upon return to Earth show the vilanterol space grown crystals in rubber container (4).
Vilanterol (250 mg) was dissolved in 10 ml ethanol to result in a vilanterol solution having a final concentration of 25 mg/ml. Main compartment (2) of cassette (1) (FIG. 1A) was filled with 2 ml of the prepared vilanterol/ethanol solution. In addition, one rubber container (4), placed in one storage compartment (3), was filled with 1 ml heptane (anti-solvent). Cassette (1) was kept at 37° C.
After 10 days from launch into space, one plunger was released thereby activating one rubber container (4) in one storage compartment (3), allowing 1 ml of heptane to flow into main compartment (2), which, as mentioned above, comprises the vilanterol/ethanol solution. […]
The experiments performed in space on board of the ISS yielded crystals that were substantially larger and of higher crystalline order compared to their Earth-grown equivalents. […] The quantity of material manufactured in orbit was sufficient for complete characterization study and further processing tests. […]

Regarding `OCc1cc([C@@H](O)CNCCCCCCOCCOCc2c(Cl)cccc2Cl)ccc1O` [vilanterol, 4-{(1R)-2-[(6-{2-[(2,6-dichlorobenzyl)oxy]ethoxy}hexyl)amino]-1-hydroxyethyl}-2-(hydroxymethyl)phenol], the “highest concentration of vilanterol that could be dissolved” value in data set [1] was determined as 2.5 % w/v. Also, the width of crystals in data set [2] (crystals crystalized in space under microgravity (FIG. 3, right hand panel)) is 10-20 microns; in data set [2] (crystals crystalized on Earth, 1 g (FIG. 3, left hand panel)), “a few”.

Values taken from patent US11760716B2, “Drug crystallization under microgravity conditions” (SPACEPHARMA R&D ISRAEL LTD., priority 2018, dated 2023).
